The supplement of paper PMC10307832

Key:
Assay in all cases: relative viability (nuclei count vs DMSO), 5 days (fraction); higher = more cells survive
Ponatinib + OSI-027 = compound: Cc1ccc(C(=O)Nc2ccc(CN3CCN(C)CC3)c(C(F)(F)F)c2)cc1C#Cc1cnc2cccnn12 [Ponatinib] + COc1cccc2cc(-c3nc([C@H]4CC[C@H](C(=O)O)CC4)n4ncnc(N)c34)[nH]c12 [OSI-027] (partner 0.5 µM)
Procedure, shortened: (§1)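 Cells from lung cancer lines were seeded into 1536-well plates and, one day later, dosed by pin tool. Treatments were either a single drug or a fixed dose of an anchor drug with five library-drug doses (not always all listed) in √10 steps. After 5 days, nuclei were stained in a one-step fixation (final 0.05% Triton X-100, 1% formaldehyde, 1 ug/ml Hoechst) and counted on 4× images, and relative viability is the treated-to-vehicle nuclei ratio, as the median of duplicate plates.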

Ponatinib + Linsitinib = compound: Cc1ccc(C(=O)Nc2ccc(CN3CCN(C)CC3)c(C(F)(F)F)c2)cc1C#Cc1cnc2cccnn12 [Ponatinib] + C[C@]1(O)C[C@@H](c2nc(-c3ccc4ccc(-c5ccccc5)nc4c3)c3c(N)nccn32)C1 [Linsitinib] (partner 1 µM)
Procedure, shortened: as §1

Ponatinib + Pictilisib = compound: Cc1ccc(C(=O)Nc2ccc(CN3CCN(C)CC3)c(C(F)(F)F)c2)cc1C#Cc1cnc2cccnn12 [Ponatinib] + CS(=O)(=O)N1CCN(Cc2cc3nc(-c4cccc5[nH]ncc45)nc(N4CCOCC4)c3s2)CC1 [Pictilisib] (partner 1 µM)
Procedure, shortened: as §1

Ponatinib + Crizotinib = compound: Cc1ccc(C(=O)Nc2ccc(CN3CCN(C)CC3)c(C(F)(F)F)c2)cc1C#Cc1cnc2cccnn12 [Ponatinib] + C[C@@H](Oc1cc(-c2cnn(C3CCNCC3)c2)cnc1N)c1c(Cl)ccc(F)c1Cl [Crizotinib] (partner 1 µM)
Procedure, shortened: as §1

Ponatinib + Tozasertib = compound: Cc1ccc(C(=O)Nc2ccc(CN3CCN(C)CC3)c(C(F)(F)F)c2)cc1C#Cc1cnc2cccnn12 [Ponatinib] + Cc1cc(Nc2cc(N3CCN(C)CC3)nc(Sc3ccc(NC(=O)C4CC4)cc3)n2)n[nH]1 [Tozasertib] (partner 0.1 µM)
Procedure, shortened: as §1

Cell Line | relative viability (Ponatinib + OSI-027; first compound 0.002 µM) | relative viability (Ponatinib + OSI-027; first compound 0.006325 µM) | relative viability (Ponatinib + OSI-027; first compound 0.06325 µM) | relative viability (Ponatinib + OSI-027; first compound 0.2 µM) | relative viability (Ponatinib + Linsitinib; first compound 0.002 µM) | relative viability (Ponatinib + Linsitinib; first compound 0.006325 µM) | relative viability (Ponatinib + Linsitinib; first compound 0.06325 µM) | relative viability (Ponatinib + Linsitinib; first compound 0.2 µM) | relative viability (Ponatinib + Pictilisib; first compound 0.002 µM) | relative viability (Ponatinib + Pictilisib; first compound 0.006325 µM) | relative viability (Ponatinib + Pictilisib; first compound 0.06325 µM) | relative viability (Ponatinib + Pictilisib; first compound 0.2 µM) | relative viability (Ponatinib + Crizotinib; first compound 0.002 µM) | relative viability (Ponatinib + Crizotinib; first compound 0.006325 µM) | relative viability (Ponatinib + Crizotinib; first compound 0.06325 µM) | relative viability (Ponatinib + Crizotinib; first compound 0.2 µM) | relative viability (Ponatinib + Tozasertib; first compound 0.002 µM) | relative viability (Ponatinib + Tozasertib; first compound 0.006325 µM) | relative viability (Ponatinib + Tozasertib; first compound 0.06325 µM) | relative viability (Ponatinib + Tozasertib; first compound 0.2 µM)
HCC-44 | 0.482 | 0.413 | 0.402 | 0.408 | 0.657 | 0.71 | 0.744 | 0.683 | 0.69 | 0.65 | 0.73 | 0.628 | 0.752 | 0.799 | 0.908 | 0.808 | 0.946 | 0.882 | 0.87 | 0.595
HCC-78 | 0.332 | 0.418 | 0.366 | 0.528 | 0.412 | 0.519 | 0.605 | 0.478 | 0.203 | 0.216 | 0.214 | 0.232 | 0.291 | 0.322 | 0.447 | 0.312 | 0.385 | 0.511 | 0.404 | 0.33
HCC-366 | 0.821 | 0.984 | 1 | 0.655 | 0.699 | 0.701 | 1.02 | 0.606 | 0.149 | 0.101 | 0.146 | 0.275 | 0.474 | 0.506 | 0.531 | 0.519 | 0.112 | 0.108 | 0.0686 | 0.0671
HCC-827 | 0.681 | 0.833 | 0.739 | 0.702 | 1.03 | 0.968 | 1.03 | 0.966 | 0.952 | 1.13 | 0.899 | 0.854 | 0.819 | 0.964 | 0.924 | 0.928 | 0.403 | 0.42 | 0.427 | 0.414
HOP-62 | 0.727 | 0.759 | 0.883 | 0.72 | 0.902 | 0.663 | 0.868 | 0.773 | 0.878 | 0.609 | 0.75 | 0.665 | 0.876 | 0.94 | 0.901 | 0.917 | 0.303 | 0.348 | 0.317 | 0.33
IA-LM |  |  |  |  | 0.538 | 0.512 | 0.529 | 0.535 | 0.428 | 0.386 | 0.572 | 0.442 | 0.6 | 0.737 | 0.887 | 0.7 |  |  |  | 
LC-2-ad | 0.673 | 0.732 | 0.775 | 0.678 | 0.802 | 0.728 | 0.644 | 0.555 | 0.353 | 0.239 | 0.191 | 0.207 | 0.482 | 0.417 | 0.418 | 0.421 | 0.458 | 0.455 | 0.431 | 0.397
LCLC-97TM1 | 0.448 | 0.561 | 0.606 | 0.28 |  | 0.218 |  | 0.197 |  | 0.243 |  | 0.221 |  | 0.369 |  | 0.413 | 0.236 | 0.298 | 0.17 | 0.218
NCI-H522 | 0.641 | 0.683 | 0.65 | 0.578 |  |  |  |  |  |  |  |  |  |  |  |  | 0.51 | 0.543 | 0.476 | 0.455
NCI-H1299 |  |  |  |  | 0.915 | 0.948 | 0.971 | 0.951 | 0.894 | 0.874 | 0.988 | 0.658 | 0.904 | 0.936 | 0.974 | 0.923 |  |  |  | 
NCI-H1395 | 0.519 | 0.57 | 0.558 | 0.505 |  | 1.05 | 0.915 | 0.832 |  | 0.696 | 0.657 | 0.581 |  |  |  |  | 0.636 | 0.747 | 0.768 | 0.701
NCI-H1563 | 0.764 | 0.711 | 0.687 | 0.692 | 1.22 | 1.26 | 1.21 | 1.1 | 0.546 | 0.601 | 0.586 | 0.599 | 0.843 | 0.792 | 0.921 | 0.843 |  |  |  | 
NCI-H1623 | 0.446 | 0.432 | 0.418 | 0.447 |  |  |  |  |  |  |  |  |  |  |  |  | 0.429 | 0.426 | 0.453 | 0.419
NCI-H1648 | 0.249 | 0.299 | 0.261 | 0.282 |  |  |  |  |  |  |  |  |  |  |  |  | 0.464 | 0.361 | 0.577 | 0.283
NCI-H1650 | 0.611 | 0.66 | 0.748 | 0.568 |  |  |  |  | 0.601 | 0.722 | 0.642 | 0.558 | 1.03 | 0.939 | 1.17 | 0.821 | 0.323 | 0.411 | 0.348 | 0.304
NCI-H1703 |  |  |  |  | 0.641 | 0.827 | 0.364 | 0.25 | 0.278 | 0.228 | 0.223 | 0.205 | 0.588 | 0.693 | 0.254 | 0.172 |  |  |  | 
NCI-H1792 | 0.621 | 0.747 | 0.841 | 0.586 | 0.525 | 0.591 | 0.572 | 0.521 | 0.241 | 0.347 | 0.388 | 0.284 | 0.956 | 0.988 | 1.1 | 0.976 |  |  |  | 
NCI-H1793 | 0.281 | 0.256 | 0.273 | 0.175 | 0.815 | 0.924 | 0.964 | 0.762 | 0.335 | 0.344 | 0.206 | 0.356 |  |  |  |  | 0.357 | 0.388 | 0.29 | 0.204
NCI-H2170 | 0.698 | 0.724 | 0.749 | 0.694 |  |  |  |  | 0.325 | 0.322 | 0.351 | 0.354 | 1.13 | 1.15 | 1.22 | 1.17 | 0.755 | 0.674 | 0.651 | 0.665
NCI-H2342 | 0.557 | 0.602 | 0.53 | 0.637 |  |  |  |  |  |  |  |  |  |  |  |  | 0.489 | 0.639 | 0.403 | 0.591
SW 900 | 0.465 | 0.575 | 0.623 | 0.577 |  |  |  |  |  |  |  |  |  |  |  |  | 0.58 | 0.51 | 0.337 | 0.38
